# Reference: patent US11236055B2 (Venenum Biodesign, LLC, priority 2016, dated 2022)
# Columns and labels:
# [1] = test system: GLP-1 levels in the blood of male C57BL/6NTac mice; assay: In vivo mouse GLP-1 study, single oral dose; conditions: 10 mg/kg oral, 4 h post-dose, sitagliptin 3 mg/kg pre-dose
# Procedure: In Vivo Mouse GLP-1 Study
# 12-14 week old male C57BL/6NTac (Taconic) mice were divided into experimental groups (n=6) by randomizing mice based on pre-fasting body weight and then were fasted overnight. On experiment day, all mice were dosed with 3 mg/kg sitagliptin via oral gavage exactly 1 hour before oral gavage dosing of vehicle (0.5% carboxymethylcellulose (medium viscosity)+0.25% Tween-80) or 10 mg/kg compound in vehicle. Four (4) hours following the administration of compound, blood was collected via cardiac puncture. For the GLP-1 assay, 200-250 μL of blood was placed in an EDTA K^2+ tube containing 5 μL of 40 mg/mL aprotinin (Sigma A1153) and 1 μL of 10 mM sitagliptin (Sigma S8576) and plasma was separated by centrifugation. Plasma samples were stored at −20° C. until analysis. The active form of GLP-1 [GLP-1 (7-36) amide] was analyzed using Meso Scale Discovery System according to the manufacturer's directions (item number K150HYC). Values of p<0.05 are considered statistically significant.
# The active GLP-1 assay results from the mice in vivo study are shown in Table 36 and FIG. 1, expressed as fold change over vehicle.
# Mouse STC-1 cells = assay: STC-1 GLP-1 assay; format: cell-based; conditions: GLP-1 secretion, 2 h, coded A-C, read-out: Mouse STC-1 HTRF GLP-1 Activity (EC50)
# Outline: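 Cells were seeded two days before in charcoal-stripped FBS medium, then exposed 2 h at 37 °C to compounds (12-point half-log series) in HBSS with protease inhibitors, DPP-IV inhibitor and 0.1% fatty acid free BSA. Active GLP-1 in supernatants measured by HTRF; EC50 derived.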
# [2] = Pharmacokinetic profile in mice; format: in vivo; conditions: mouse; fasted male Hilltop mice, 10 mg/kg oral gavage, plasma, mean of three mice
# Outline: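 Fasted 8-week-old male Hilltop mice received 10 mg/kg by oral gavage in 20% PEG400/80% 0.5% CMC + 0.25% Tween-80. Plasma was sampled at 0–4 h, with at most 3 draws per mouse, and measured by LC-MS/MS (0.1–500 ng/mL standards). Cmax and AUC were derived non-compartmentally; values are means of three mice.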
SMILES,EC50 (Mouse STC-1 cells),Cmax [2],"Fold Increase (active GLP-1, fold change over vehicle) [1]"
"CCc1cnccc1-c1cccc([C@H](C)N(CCCC(=O)NCCS(=O)(=O)O)S(=O)(=O)c2ccccc2C(F)(F)F)c1 [Compound 20BF, (S)-2-(4-(N-(1-(3-(3-ethylpyridin-4-yl)phenyl)ethyl)-2-(trifluoromethyl)phenylsulfonamido)butanamido)ethanesulfonic acid]",100 to 999 nM,0.8 ng/mL,2.9
"CCc1cnccc1-c1cccc([C@H](C)N(CCCC(=O)NCCCS(=O)(=O)O)S(=O)(=O)c2cccc(Cl)c2C)c1 [Compound 20AM, (S)-3-(4-(3-chloro-N-(1-(3-(3-ethylpyridin-4-yl)phenyl)ethyl)-2-methylphenylsulfonamido)butanamido)propane-1-sulfonic acid]",100 to 999 nM,0.9 ng/mL,2.3
CCc1cnccc1-c1cccc([C@H](C)N(CCCC(=O)NCCS(=O)(=O)NCC(=O)O)S(=O)(=O)c2ccccc2C(F)(F)F)c1 [Compound 20BG],100 to 999 nM,0.3 ng/mL,4.4
"CCc1cnccc1-c1cccc([C@H](C)N(CCCC(=O)NCCS(=O)(=O)NCC(=O)O)S(=O)(=O)c2cccc(Cl)c2C)c1 [Compound 21AT, (S) 2-(3-(4-(3-chloro-2-methyl-N-(1-(3-(3-ethylpyridin-4-yl)phenyl)ethyl)phenylsulfonamido)butanamido)ethylsulfonamido)acetic acid]",100 to 999 nM,1.6 ng/mL,4.2
"Cc1cnccc1-c1cccc([C@H](C)N(CCCCC(=O)NCCS(=O)(=O)NCC(=O)O)S(=O)(=O)c2ccccc2C(F)(F)F)c1 [Compound 20BL, (S) 2-(4-(N-(1-(3-(3-methylpyridin-4-yl)phenyl)ethyl)-2-(trifluoromethyl)phenylsulfonamidopentanamido)ethylsulfonamido)acetic acid]",1000 to 30000 nM,1.2 ng/mL,2.1
"CCc1cnccc1-c1cccc([C@H](C)N(CCCC(=O)NCCS(=O)(=O)O)S(=O)(=O)c2cccc(Cl)c2C)c1 [Compound 21AQ, (S)-2-(4-(3-chloro-N-(1-(3-(3-ethylpyridin-4-yl)phenyl)ethyl)-2-methylphenylsulfonamido)butanamido)ethanesulfonic acid]",100 to 999 nM,4.2 ng/mL,2.0
"CCc1cnccc1-c1cccc(C(C)(C)N(CCCC(=O)NCCS(=O)(=O)O)S(=O)(=O)c2ccccc2C(F)(F)F)c1 [Compound 20, 2-(4-(N-(2-(3-(3-ethylpyridin-4-yl)phenyl)propan-2-yl)-2-(trifluoromethyl)-phenylsulfonamido)butanamido)ethanesulfonic acid]",< 100 nM,5 ng/mL,1.0
Cc1cnccc1-c1cccc([C@H](C)N(CCCC(=O)NCCS(=O)(=O)NCCCC(=O)O)S(=O)(=O)c2ccccc2C(F)(F)F)c1 [Compound 20BK],1000 to 30000 nM,0.4 ng/mL,1.3

# More lines, main results first:
EC50 (Mouse STC-1 cells),Cmax [2],SMILES,"Fold Increase (active GLP-1, fold change over vehicle) [1]"
100 to 999 nM,7.2 ng/mL,"Cc1cnccc1-c1cccc(C(C)(C)N(CCCC(=O)NCCS(=O)(=O)O)S(=O)(=O)c2ccccc2C(F)(F)F)c1 [Compound 20AA, 2-(4-(N-(2-(3-(3-methylpyridin-4-yl)phenyl)propan-2-yl)-2-(trifluoromethyl)phenylsulfonamido)butanamido)ethanesulfonic acid]",3.3
–,19.4 ng/mL,"Cc1cnccc1-c1cccc(C(C)(C)N(CCCC(=O)NCC(=O)O)S(=O)(=O)c2cccc(Cl)c2C)c1 [Compound 21AB, 2-(4-(3-chloro-2-methyl-N-(2-(3-(3-methylpyridin-4-yl)phenyl)propan-2-yl)phenylsulfonamido)butanamido)acetic acid]",3.0
100 to 999 nM,5.2 ng/mL,"Cc1cnccc1-c1cccc(C(C)(C)N(CCCC(=O)NC[C@@H](O)[C@H](O)[C@@H](O)[C@@H](O)CO)S(=O)(=O)c2cccc(Cl)c2C)c1 [Compound 20AF, 4-(3-chloro-2-methyl-N-(2-(3-(3-methylpyridin-4-yl)phenyl)propan-2-yl)phenylsulfonamido)-N-((2R,3S,4S,5S)-2,3,4,5,6-pentahydroxyhexyl)butanamide]",0.8
100 to 999 nM,7.8 ng/mL,"CCc1cnccc1-c1cccc(C(C)(C)N(CCCC(=O)NCCS(=O)(=O)O)S(=O)(=O)c2cccc(Cl)c2C)c1 [Compound 20AC, 2-(4-(3-chloro-N-(2-(3-(3-ethylpyridin-4-yl)phenyl)propan-2-yl)-2-methylphenylsulfonamido)butanamido)ethanesulfonic acid]",1.2
–,2.5 ng/mL,"Cc1cnccc1-c1cccc(C(C)(C)N(CCCC(=O)NCCCS(=O)(=O)O)S(=O)(=O)c2cccc(Cl)c2C)c1 [Compound 20AD, 3-(4-(3-chloro-2-methyl-N-(2-(3-(3-methylpyridin-4-yl)phenyl)propan-2-yl)phenylsulfonamido)butanamido)propane-1-sulfonic acid]",1.9
–,2.8 ng/mL,"Cc1cnccc1-c1cccc(C(C)(C)N(CCCC(=O)NCCS(=O)(=O)NCC(=O)O)S(=O)(=O)c2cccc(Cl)c2C)c1 [Compound 20AW, (4-(3-chloro-2-methyl-N-(2-(3-(3-methylpyridin-4-yl)phenyl)propan-2-yl)phenylsulfonamido)-N-butanamidoethylsulfonamido)acetic acid]",1.1
1000 to 30000 nM,0.9 ng/mL,"Cc1cnccc1-c1cccc([C@H](C)N(CCCCC(=O)NCCS(=O)(=O)O)S(=O)(=O)c2cccc(Cl)c2C)c1 [Compound 20AH, (S)-2-(5-(3-chloro-2-methyl-N-(1-(3-(3-methylpyridin-4-yl)phenyl)ethyl)phenylsulfonamido)pentanamido)ethanesulfonic acid]",–
100 to 999 nM,3.6 ng/mL,Cc1cnccc1-c1cccc([C@H](C)N(CCCC(=O)NCCNS(=O)(=O)NCC(=O)O)S(=O)(=O)c2cccc(Cl)c2C)c1 [Compound 38],–
